Measurements: the supplement of paper PMC10307832

Experiments:
Assay in all cases: relative viability (nuclei count vs DMSO), 5 days (fraction); higher = more cells survive
201T = tested on: 201T
Outline: (§1)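 After 5 days of treatment, lung cancer cells in 1536-well plates were fixed and stained in a single step (final 0.05% Triton X-100, 1% formaldehyde, 1 ug/ml Hoechst) and their nuclei counted on 4× images. Treatment had been applied by pin tool the day after seeding as one drug alone or as a fixed anchor-drug dose with five library-drug doses (not always all listed) in √10 steps. Relative viability is the nuclei count of treated wells divided by that of vehicle wells, and values are medians of duplicate plates.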

BEN = tested on: BEN
Outline: as §1

HCC-366 = tested on: HCC-366
Outline: as §1

HCC-44 = tested on: HCC-44
Outline: as §1

HCC-78 = tested on: HCC-78
Outline: as §1

LOU-NH91 = tested on: LOU-NH91
Outline: as §1

LU99A = tested on: LU99A
Outline: as §1

NCI-H1355 = tested on: NCI-H1355
Outline: as §1

NCI-H1395 = tested on: NCI-H1395
Outline: as §1

NCI-H1734 = tested on: NCI-H1734
Outline: as §1

NCI-H1975 = tested on: NCI-H1975
Outline: as §1

NCI-H2085 = tested on: NCI-H2085
Outline: as §1

NCI-H2087 = tested on: NCI-H2087
Outline: as §1

NCI-H2126 = tested on: NCI-H2126
Outline: as §1

NCI-H322M = tested on: NCI-H322M
Outline: as §1

NCI-H358 = tested on: NCI-H358
Outline: as §1

NCI-H647 = tested on: NCI-H647
Outline: as §1

NCI-H727 = tested on: NCI-H727
Outline: as §1

PC-14 = tested on: PC-14
Outline: as §1

`C=C1C(=O)O[C@@H](CCCCCCCC)[C@@H]1C(=O)O` [C-75] + NC(=O)Nc1cc(-c2cccc(F)c2)sc1C(=O)N[C@H]1CCCNC1 [AZD7762] (partner 0.2 µM) showed a relative viability (201T; first compound 0.08 µM) of 0.588, a relative viability (201T; first compound 0.253 µM) of 0.687 and a relative viability (201T; first compound 0.8 µM) of 0.631. It also gave a relative viability (201T; first compound 2.53 µM) of 0.507, a relative viability (201T; first compound 8 µM) of 0.566 and a relative viability (BEN; first compound 0.08 µM) of 0.676. For the same compound, the relative viability (BEN; first compound 0.253 µM) was 0.729, the relative viability (BEN; first compound 0.8 µM) was 0.589 and the relative viability (BEN; first compound 2.53 µM) was 0.633. The relative viability (BEN; first compound 8 µM) was 0.627, the relative viability (HCC-366; first compound 0.08 µM) was 0.271 and the relative viability (HCC-366; first compound 0.253 µM) was 0.306. It also gave a relative viability (HCC-366; first compound 0.8 µM) of 0.227, a relative viability (HCC-366; first compound 2.53 µM) of 0.152 and a relative viability (HCC-366; first compound 8 µM) of 0.52. The relative viability (HCC-44; first compound 0.08 µM) was 1.03, the relative viability (HCC-44; first compound 0.253 µM) was 1.05 and the relative viability (HCC-44; first compound 0.8 µM) was 0.999. It also gave a relative viability (HCC-44; first compound 2.53 µM) of 0.953, a relative viability (HCC-44; first compound 8 µM) of 1.08 and a relative viability (HCC-78; first compound 0.08 µM) of 0.584. The relative viability (HCC-78; first compound 0.253 µM) was 0.409, the relative viability (HCC-78; first compound 0.8 µM) was 0.579 and the relative viability (HCC-78; first compound 8 µM) was 0.72. The relative viability (LOU-NH91; first compound 0.08 µM) was 0.739, the relative viability (LOU-NH91; first compound 0.253 µM) was 0.704 and the relative viability (LOU-NH91; first compound 0.8 µM) was 0.684. It also gave a relative viability (LOU-NH91; first compound 8 µM) of 0.818, a relative viability (LU99A; first compound 0.08 µM) of 0.36 and a relative viability (LU99A; first compound 0.253 µM) of 0.529. For the same compound, the relative viability (LU99A; first compound 0.8 µM) was 0.33, the relative viability (LU99A; first compound 2.53 µM) was 0.284 and the relative viability (LU99A; first compound 8 µM) was 0.401. The relative viability (NCI-H1355; first compound 0.08 µM) was 0.742, the relative viability (NCI-H1355; first compound 0.253 µM) was 0.831 and the relative viability (NCI-H1355; first compound 0.8 µM) was 0.738. It also gave a relative viability (NCI-H1355; first compound 2.53 µM) of 0.663, a relative viability (NCI-H1355; first compound 8 µM) of 0.764 and a relative viability (NCI-H1395; first compound 0.08 µM) of 0.358. It also gave a relative viability (NCI-H1395; first compound 0.253 µM) of 0.386, a relative viability (NCI-H1395; first compound 2.53 µM) of 0.4 and a relative viability (NCI-H1395; first compound 8 µM) of 0.413. It also gave a relative viability (NCI-H1734; first compound 0.08 µM) of 0.562, a relative viability (NCI-H1734; first compound 0.253 µM) of 0.587 and a relative viability (NCI-H1734; first compound 0.8 µM) of 0.488. For the same compound, the relative viability (NCI-H1734; first compound 2.53 µM) was 0.278, the relative viability (NCI-H1734; first compound 8 µM) was 0.664 and the relative viability (NCI-H1975; first compound 0.08 µM) was 0.771. For the same compound, the relative viability (NCI-H1975; first compound 0.253 µM) was 0.556, the relative viability (NCI-H1975; first compound 0.8 µM) was 0.623 and the relative viability (NCI-H1975; first compound 2.53 µM) was 0.667. For the same compound, the relative viability (NCI-H1975; first compound 8 µM) was 0.78, the relative viability (NCI-H2085; first compound 0.08 µM) was 0.95 and the relative viability (NCI-H2085; first compound 0.253 µM) was 1.09. For the same compound, the relative viability (NCI-H2085; first compound 0.8 µM) was 0.919, the relative viability (NCI-H2085; first compound 2.53 µM) was 0.943 and the relative viability (NCI-H2085; first compound 8 µM) was 1. For the same compound, the relative viability (NCI-H2087; first compound 0.08 µM) was 1.59, the relative viability (NCI-H2087; first compound 0.253 µM) was 1.23 and the relative viability (NCI-H2087; first compound 0.8 µM) was 1.07. For the same compound, the relative viability (NCI-H2087; first compound 2.53 µM) was 1.3, the relative viability (NCI-H2087; first compound 8 µM) was 1.09 and the relative viability (NCI-H2126; first compound 0.08 µM) was 0.953. For the same compound, the relative viability (NCI-H2126; first compound 0.253 µM) was 1.13, the relative viability (NCI-H2126; first compound 0.8 µM) was 0.965 and the relative viability (NCI-H2126; first compound 2.53 µM) was 0.886. It also gave a relative viability (NCI-H2126; first compound 8 µM) of 1.01, a relative viability (NCI-H322M; first compound 0.08 µM) of 0.587 and a relative viability (NCI-H322M; first compound 0.253 µM) of 0.684. For the same compound, the relative viability (NCI-H322M; first compound 0.8 µM) was 0.552, the relative viability (NCI-H322M; first compound 8 µM) was 0.587 and the relative viability (NCI-H358; first compound 0.08 µM) was 0.55. For the same compound, the relative viability (NCI-H358; first compound 0.253 µM) was 0.531, the relative viability (NCI-H358; first compound 0.8 µM) was 0.454 and the relative viability (NCI-H358; first compound 2.53 µM) was 0.456. For the same compound, the relative viability (NCI-H358; first compound 8 µM) was 0.477, the relative viability (NCI-H647; first compound 0.08 µM) was 0.412 and the relative viability (NCI-H647; first compound 0.253 µM) was 0.405. It also gave a relative viability (NCI-H647; first compound 0.8 µM) of 0.329, a relative viability (NCI-H647; first compound 2.53 µM) of 0.444 and a relative viability (NCI-H647; first compound 8 µM) of 0.373. The relative viability (NCI-H727; first compound 0.08 µM) was 0.694, the relative viability (NCI-H727; first compound 0.253 µM) was 0.906 and the relative viability (NCI-H727; first compound 0.8 µM) was 0.4. It also gave a relative viability (NCI-H727; first compound 2.53 µM) of 0.587, a relative viability (NCI-H727; first compound 8 µM) of 0.388 and a relative viability (PC-14; first compound 0.08 µM) of 0.358. It also gave a relative viability (PC-14; first compound 0.8 µM) of 0.243, a relative viability (PC-14; first compound 2.53 µM) of 0.328 and a relative viability (PC-14; first compound 8 µM) of 0.319.
